Experimental data as given in PMC2580030 (PLoS ONE, 2008).

Molecular target: T1, HLA-DR1 (Homo sapiens, UniProt P01903+P01911, A100R/D57E/F55L/F60I/F76Y/I96L/L162R/M171V/P40L/Q125E/R42F/V115G/Y59C)
T1 construct: made in house; host or cells: stably transfected Drosophila S2 insect cell lines (DR1 and DM separately)
Assay type: binding

PVSKMRMATPLLMQA [CLIP, residues 87–101 of the CLIP peptide]
largest CLIP/DR1 complex dissociation measured: ~55%
t 1/2 of CLIP dissociation from DR1: approximately 80 min
